# Data published in US20240123079A1 (Seagen Inc., priority 2021, published 2024).
# Assay: In vivo cytokine assay, plasma of Renca tumor-bearing mice
# Design: species or system mouse
# Conditions: for IL1β in plasma / IL12p70 in plasma / IL-6 in plasma / IL-10 in plasma / IP10 in plasma / MCP-1 in plasma / IFNγ in plasma: Renca tumor-bearing mice, 1.48 mg/kg
# Procedure: Cytokines were measured in mouse plasma harvested at 3, 6, 24, or 48 hours after treatment with compounds or ADCs using a Milliplex MAP mouse cytokine/chemokine magnetic bead panel assay kit (MCYTOMAG-70k custom 11-plex kit: MCP1, MIP1α, MIP1β, TNFα, IFNγ, IL-10, IL-12p70, IL-6, IL-1β, IP10, RANTES) and analyzed using a Luminex™ MAGPIX™ Instrument System. Values that were outside of the standard curve range (<3.2 or […]) were excluded from calculation of the mean values.
structure (smiles),measurement,setting,value
"CCn1nc(C)cc1C(=O)Nc1nc2cc(C(N)=O)cc(O)c2n1C/C=C/Cn1c(NC(=O)c2cc(C)nn2CC)nc2cc(C(N)=O)cc(OC)c21 [Compound 1, (E)-1-(4-(5-carbamoyl-2-(1-ethyl-3-methyl-1H-pyrazole-5-carboxamido)-7-hydroxy-1H-benzo[d]imidazol-1-yl)but-2-en-1-yl)-2-(1-ethyl-3-methyl-1H-pyrazole-5-carboxamido)-7-methoxy-1H-benzo[d]imidazole-5-carboxamide]",IL1β in plasma,3 h,0.7 pg/mL
same,IL12p70 in plasma,3 h,174 pg/mL
same,IL-6 in plasma,3 h,95.7 pg/mL
same,IL-10 in plasma,3 h,48.8 pg/mL
same,IP10 in plasma,3 h,703 pg/mL
same,MCP-1 in plasma,3 h,168 pg/mL
same,IFNγ in plasma,6 h,0.2 pg/mL
same,IL1β in plasma,6 h,1.5 pg/mL
same,IL12p70 in plasma,6 h,< 3.2 pg/mL
same,IL-6 in plasma,6 h,6.8 pg/mL
same,IL-10 in plasma,6 h,0.8 pg/mL
same,IP10 in plasma,6 h,3390 pg/mL
same,MCP-1 in plasma,6 h,796 pg/mL
same,IFNγ in plasma,24 h,< 3.2 pg/mL
same,IL1β in plasma,24 h,0.8 pg/mL
same,IL12p70 in plasma,24 h,140 pg/mL
same,IL-6 in plasma,24 h,13.5 pg/mL
same,IL-10 in plasma,24 h,34.6 pg/mL
same,IP10 in plasma,24 h,551 pg/mL
same,systemic pro-inflammatory cytokine (IL-6 and TNF) production,plasma of tumor-bearing mice,induced very little pro-inflammatory cytokine (IL-6 and TNF) production
